pIC50: −log10 of the molar value. Where two headings read alike, the source gives them in different places.
What was measured:
AuroraA-TPX2 = target: T1, AuroraA-TPX2 (Homo sapiens, UniProt O14965); experiment: AuroraA-TPX2 Homogeneous Time Resolved Fluorescent (HTRF) kinase assay; type: biochemical; conditions: average, read-out: AurA/TP X2_ IC50_IP (Avg)
T1 construct: 20 µL of AuroraA-TPX2 KD GST; GST
T1 sequence (O14965 133-383 limits assumed): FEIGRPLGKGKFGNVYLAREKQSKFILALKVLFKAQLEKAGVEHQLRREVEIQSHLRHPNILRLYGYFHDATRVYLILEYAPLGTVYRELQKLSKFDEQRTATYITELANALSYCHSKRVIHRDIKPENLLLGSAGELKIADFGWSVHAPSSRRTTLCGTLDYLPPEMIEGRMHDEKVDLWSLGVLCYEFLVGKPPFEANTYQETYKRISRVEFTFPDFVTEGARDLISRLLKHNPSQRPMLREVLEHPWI
T1 sequence (Q9ULW0 1-43 partner limits assumed): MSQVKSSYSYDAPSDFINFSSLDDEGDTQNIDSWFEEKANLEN
Experimental: AuroraA-TPX2-Homogeneous Time Resolved Fluorescent (HTRF) Kinase Assay:
The Aurora-A HTRF assay begins with Aurora-A in the presence of ATP phosphorylating the biotinylated peptide PLK. The reaction incubates for about 120 min. Detection reagents are added to quench the reaction. These agents stop the reaction by diluting out the enzyme and chelating the metals due to the presence of EDTA. After addition, the assay is incubated overnight to allow the detection reagents to equilibrate.
The final concentration of PLK is about 1 µM. […] Buffer conditions are as follows: 60mM HEPES pH 7.5, 25mM NaCl, 10mM MgCl, 2mM DTT, 0.05% BSA.
(§1) The assay is quenched and stopped with 160 µL, of detection reagent. Detection reagents are as follows: Buffer made of 50mM Tris, pH 7.5, 100mM NaCl, 3mM EDTA, 0.05% BSA, 0.1% Tween20. Added to this buffer prior to reading is Steptavidin allophycocyanin (SA-APC) at a final conc in the assay of 0.0005 mg/mL, and europilated anti-phosphoPLK Ab (Eu-anti-PLK) at a final conc of 0.02 nM.
The assay plate is read in either a Discovery or a RubyStar. The eu-anti-PLK is excited at 320 nm and emits at 615 nm to excite the SA-APC which in turn emits at 655 nm.

AuroraB = target: T2, AuroraB (Homo sapiens, UniProt Q96GD4); experiment: AuroraB Homogeneous Time Resolved Fluorescent (HTRF) kinase assay; type: biochemical; conditions: average, read-out: AurB_ _IC50_IP (Avg)
T2 construct: 20 µL of AuroraB FL His; His
Experimental: AuroraB-Homogeneous Time Resolved Fluorescent (HTRF) Kinase Assay:
The AuroraB HTRF assay begins with AuroraB in the presence of ATP phosphorylating the biotinylated peptide Histone H3. The reaction incubates for about 90 min. the reaction is quentched by addition of detection reagents, which stop the reaction by diluting out the enzyme and chelating the metals due to the presence of EDTA. After addition, the assay is incubated for about 60 min to allow detection reagents to equilibrate.
The AuroraB HTRF assay comprises 1 µL of compound in 100% DMSO, 20 µL of ATP and biotinylated Histone H3, and 20 µL of AuroraB FL His for a final volume of 41 µL. The final concentration of Histone H3 is 0.1 µM. The final concentration of ATP is 23 µM (Km(app) = 23 µM+/-2.6) and the final concentration of AuroraB is 400 pM. Buffer conditions are as follows: 50mM HEPES pH 7.5, 5mM NaCl, 0.5mM MgCl, 0.5mM MnCl, 2mM DTT, 0.05% BSA.
as §1, with “µL” for “µL,”, “0.001” for “0.0005”, “anti-phosphoHistoneH3” for “anti-phosphoPLK”, “(Eu-anti-HisH3)” for “(Eu-anti-PLK)”, “0.064” for “0.02”
The assay plate is read in either a Discovery or a RubyStar. The eu-anti-HisH3 is excited at 320 nm and emits at 615 nm to excite the SA-APC which in turn emits at 655 nm. The ratio of SA-APC at 655 nm (excited due to close proximity to the Eu-anti-HisH3 because of phosphorylation of the peptide) to free Eu-anti-HisH3 at 615 nm will give substrate phosphorylation.

[1] = given as numbers, unit inferred

T2 sequence (Q96GD4 whole entry): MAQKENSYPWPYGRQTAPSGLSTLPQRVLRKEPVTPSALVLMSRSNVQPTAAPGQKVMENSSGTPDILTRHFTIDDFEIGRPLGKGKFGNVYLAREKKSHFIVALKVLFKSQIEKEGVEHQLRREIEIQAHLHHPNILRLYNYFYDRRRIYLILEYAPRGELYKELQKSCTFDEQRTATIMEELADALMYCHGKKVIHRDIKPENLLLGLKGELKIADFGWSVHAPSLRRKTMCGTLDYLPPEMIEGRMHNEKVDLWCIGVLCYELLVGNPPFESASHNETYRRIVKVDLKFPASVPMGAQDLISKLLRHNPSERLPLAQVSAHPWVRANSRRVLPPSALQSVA

pIC50 (AuroraA-TPX2; [1]) | pIC50 (AuroraB; [1]) | pIC50 (AuroraA-TPX2; given as class symbols) | pIC50 (AuroraB; given as class symbols) | SMILES
6.83 | 8.74 | – | – | C[C@@H](O)c1ccc(-c2nnc(Nc3ccc(Oc4ncccc4-c4ccnc(N)n4)cc3)c3ccccc23)cc1 [compound 256, (1R)-1-(4-(4-((4-((3-(2-amino-4-pyrimidinyl)-2-pyridinyl)oxy)phenyl)amino)-1-phthalazinyl)phenyl)ethanol]
– | – | ≥ 7.00 | ≥ 7.00 | C[C@H](O)c1ccc(-c2nnc(Nc3ccc(Oc4ncccc4-c4ccnc(N)n4)cc3)c3ccccc23)cc1 [compound 257, (1S)-1-(4-(4-((4-((3-(2-amino-4-pyrimidinyl)-2-pyridinyl)oxy)phenyl)amino)-1-phthalazinyl)phenyl)ethanol]
7.71 | 8.26 | – | – | Nc1nccc(-c2cccnc2Oc2ccc(Nc3nnc(C4CCCCC4)c4ccccc34)cc2)n1 [compound 272, N-(4-((3-(2-amino-4-pyrimidinyl)-2-pyridinyl)oxy)phenyl)-4-cyclohexyl-1-phthalazinamine]
– | – | 6.30 to 7.00 | ≥ 7.00 | CC(C)c1nnc(Nc2ccc(Oc3ncccc3-c3ccnc(N)n3)cc2)c2ccccc12 [compound 273, N-(4-((3-(2-amino-4-pyrimidinyl)-2-pyridinyl)oxy)phenyl)-4-(1-methylethyl)-1-phthalazinamine]
– | – | 5.60 to 6.30 | 6.30 to 7.00 | c1ccc(-c2nnc(Nc3ccc(Oc4ncccc4-c4ccnc5c4CCCN5)cc3)c3ccccc23)cc1 [compound 283, 4-phenyl-N-(4-((3-(5,6,7,8-tetrahydro-1,8-naphthyridin-4-yl)-2-pyridinyl)oxy)phenyl)-1-phthalazinamine]
6.78 | 6.72 | – | – | Cc1csc(-c2nnc(Nc3ccc(Oc4ncccc4-c4ccnc5c4CCCN5)cc3)c3ccccc23)n1 [compound 284, 4-(4-methyl-1,3-thiazol-2-yl)-N-(4-((3-(5,6,7,8-tetrahydro-1,8-naphthyridin-4-yl)-2-pyridinyl)oxy)phenyl)-1-phthalazinamine]
– | – | 5.60 to 6.30 | 6.30 to 7.00 | Cc1cc(-c2ccccc2)nnc1Nc1ccc(Oc2ncccc2-c2ccnc3c2CCCN3)cc1 [compound 285, 4-methyl-6-phenyl-N-(4-((3-(5,6,7,8-tetrahydro-1,8-naphthyridin-4-yl)-2-pyridinyl)oxy)phenyl)-3-pyridazinamine]
7.08 | 7.99 | – | – | c1ccc(-c2nnc(Nc3ccc(Oc4ncccc4-c4ccnc5c4CCN5)cc3)c3ccccc23)cc1 [compound 287, N-(4-((3-(2,3-dihydro-1H-pyrrolo[2,3-b]pyridin-4-yl)-2-pyridinyl)oxy)phenyl)-4-phenyl-1-phthalazinamine]
– | – | ≥ 7.00 | 5.60 to 6.30 | Cc1csc(-c2nnc(Nc3ccc(Oc4ncccc4-c4ccnc5c4CCN5)cc3)c3ccccc23)n1 [compound 288, N-(4-((3-(2,3-dihydro-1H-pyrrolo[2,3-b]pyridin-4-yl)-2-pyridinyl)oxy)phenyl)-4-(4-methyl-1,3-thiazol-2-yl)-1-phthalazinamine]

The remaining lines, values behind:

SMILES | pIC50 (AuroraA-TPX2; [1]) | pIC50 (AuroraB; [1]) | pIC50 (AuroraA-TPX2; given as class symbols) | pIC50 (AuroraB; given as class symbols)
CN1C[C@@H]2C[C@H]1CN2c1nnc(Nc2ccc(Oc3ncccc3-c3ccnc(N)n3)cc2)c2ccccc12 [compound 258, N-(4-((3-(2-amino-4-pyrimidinyl)-2-pyridinyl)oxy)phenyl)-4-((1S,4S)-5-methyl-2,5-diazabicyclo[2.2.1]hept-2-yl)-1-phthalazinamine] | – | – | 5.60 to 6.30 | 6.30 to 7.00
Nc1nccc(-c2cccnc2Oc2ccc(Nc3ncc(-c4ccc(Cl)cc4)c4ccccc34)cc2)n1 [compound 265, N-(4-((3-(2-amino-4-pyrimidinyl)-2-pyridinyl)oxy)phenyl)-4-(4-chlorophenyl)-1-isoquinolinamine] | – | – | ≥ 7.00 | ≥ 7.00
Nc1nccc(-c2cccnc2Oc2ccc(Nc3ncc(-c4ccccc4)c4ccccc34)cn2)n1 [compound 266, N-(6-((3-(2-amino-4-pyrimidinyl)-2-pyridinyl)oxy)-3-pyridinyl)-4-phenyl-1-isoquinolinamine] | – | – | ≥ 7.00 | ≥ 7.00
c1ccc(-c2nnc(Nc3ccc(Oc4ncccc4-c4ccnc(NCCCN5CCCCC5)n4)nc3)c3ccccc23)cc1 [compound 267, 4-phenyl-N-(6-((3-(2-((3-(1-piperidinyl)propyl)amino)-4-pyrimidinyl)-2-pyridinyl)oxy)-3-pyridinyl)-1-phthalazinamine] | 7.02 | 7.98 | – | –
c1ccc(-c2nnc(Nc3ccc(Oc4ncccc4-n4ccnc4)cc3)c3ccccc23)cc1 [compound 268, N-(4-((3-(1H-imidazol-1-yl)-2-pyridinyl)oxy)phenyl)-4-phenyl-1-phthalazinamine] | – | – | 5.60 to 6.30 | 5.60 to 6.30
CC(C)c1nnc(Nc2ccc(Oc3ncccc3-c3ccnc(N)n3)nc2)c2ccccc12 [compound 269, N-(6-((3-(2-amino-4-pyrimidinyl)-2-pyridinyl)oxy)-3-pyridinyl)-4-(1-methylethyl)-1-phthalazinamine] | – | – | ≥ 7.00 | ≥ 7.00
Cc1cccc(-c2nnc(Nc3ccc(Oc4ncccc4-c4ccnc(N)n4)nc3)c3ccccc23)n1 [compound 270, N-(6-((3-(2-amino-4-pyrimidinyl)-2-pyridinyl)oxy)-3-pyridinyl)-4-(6-methyl-2-pyridinyl)-1-phthalazinamine] | – | – | ≥ 7.00 | ≥ 7.00
Cc1cccc(-c2nnc(Nc3ccc(Oc4ncccc4-c4ccnc(NCCCN5CCN(C)CC5)n4)cc3)c3ccccc23)n1 [compound 275, N-(4-((3-(2-((3-(4-methyl-1-piperazinyl)propyl)amino)-4-pyrimidinyl)-2-pyridinyl)oxy)phenyl)-4-(6-methyl-2-pyridinyl)-1-phthalazinamine] | 7.02 | 7.87 | – | –
Cc1cccc(-c2nnc(Nc3ccc(Oc4ncccc4-c4ccnc(NCCCN5CCCCC5)n4)cc3)c3ccccc23)n1 [compound 276, 4-(6-methyl-2-pyridinyl)-N-(4-((3-(2-((3-(1-piperidinyl)propyl)amino)-4-pyrimidinyl)-2-pyridinyl)oxy)phenyl)-1-phthalazinamine] | – | – | 6.30 to 7.00 | ≥ 7.00
Cc1cccc(-c2nnc(Nc3ccc(Oc4ncccc4-c4ccnc(NCCCN5CCNCC5)n4)cc3)c3ccccc23)n1 [compound 277, 4-(6-methyl-2-pyridinyl)-N-(4-((3-(2-((3-(1-piperazinyl)propyl)amino)-4-pyrimidinyl)-2-pyridinyl)oxy)phenyl)-1-phthalazinamine] | 6.90 | 8.57 | – | –
Cc1ccc(-c2nnc(Nc3ccc(Oc4ncccc4-c4ccnc(N)n4)nc3)c3ccccc23)nc1 [compound 289, N-(6-((3-(2-amino-4-pyrimidinyl)-2-pyridinyl)oxy)-3-pyridinyl)-4-(5-methyl-2-pyridinyl)-1-phthalazinamine] | 7.62 | 8.72 | – | –
CN1CCN(CCCNc2ncc(F)c(-c3cccnc3Oc3ccc(Nc4nnc(-c5ccccc5)c5ccccc45)cc3)n2)CC1 [compound 291, N-(4-((3-(5-fluoro-2-((3-(4-methyl-1-piperazinyl)propyl)amino)-4-pyrimidinyl)-2-pyridinyl)oxy)phenyl)-4-phenyl-1-phthalazinamine] | 7.80 | 8.52 | – | –

Source: patent EP1984353B1, “AURORA KINASE MODULATORS AND METHOD OF USE” (Amgen, Inc, priority 2006, dated 2007)
